Measured values from US9233964B2, “Sulfamide piperazine derivatives as protein tyrosine kinase inhibitors and pharmaceutical use therof” (LEO PHARMA A/S, priority 2011, dated 2016).

Columns and labels:
Format in all cases: biochemical
JAK3 = target: T1, JAK3 (Homo sapiens, UniProt P52333); test: JAK kinase assay (HTRF, phosphorylation of synthetic peptide), JAK3; details: catalytic domain, ATP at Km (2 μM); read-out: JAK3 kinase inhibitory activity (EC50)
T1 construct: All four purified enzymes contain only the catalytic domain; His (N); purchased Carna Biosciences, Inc; host or cells: baculovirus expression system
Method: (§1) Human baculovirus-expressed JAK1, 2, 3 and TYK2 were purchased from Carna Biosciences, Inc. All four purified enzymes contain only the catalytic domain. JAK1 (aa 850-1154) and TYK2 (aa 871-1187) are expressed with an N-terminally fused GST-tag, and JAK2 and JAK3 with an N-terminally fused His-tag.
(§2) Inhibition of phosphorylation of a synthetic peptide was measured in an HTRF-based assay using the TK substrate-Biotin from the Cisbio HTRFKinEASE TK kit. First, 2 μl of TK solution (TK substrate-biotin in kinase buffer [1× enzymatic buffer from HTRFKinEASE TK kit, 1 mM DTT]) is added to a plate containing 1 μl prediluted compound (final assay concentration DMSO: 0.75%). Then, 5 μl kinase-ATP mix (prepared in kinase buffer) is added to the wells and the plates are incubated at RT for 20-30 min. For all four kinases a concentration of ATP that corresponded to the Km for ATP was used. The final concentrations of buffers, substrate, kinase and ATP were: JAK1: 50 mM Hepes buffer pH 7.0, 0.01% BSA, 10 mM MgCl2, 1 mM DTT, 7 μM ATP, 50 nM SEB, 1 μM TK Substrate-Biotin and 5 ng JAK1; JAK2: 50 mM Hepes buffer pH 7.0, 0.01% BSA, 5 mM MgCl2, 1 mM DTT, 4 μM ATP, 1 μM TK Substrate-Biotin and 0.1 ng JAK2; JAK3: 50 mM Hepes buffer pH 7.0, 0.01% BSA, 5 mM MgCl2, 1 mM DTT, 2 μM ATP, 1 μM TK Substrate-Biotin and 0.3 ng JAK3; TYK2: 50 mM Hepes buffer pH 7.0, 0.01% BSA, 5 mM MgCl2, 1 mM DTT, 13 μM ATP, 50 nM SEB, 1 μM TK Substrate-Biotin and 0.8 ng TYK2. Thereafter, the kinase reaction is stopped by adding 4 μl detection mix (final concentrations: 50 mM Hepes buffer pH 7.0, 0.01% BSA, 0.8 M KF, 20 mM EDTA, 42 nM Streptavidin-XL665 and 1:400 STK Ab Cryptate) and the plates are incubated overnight in the dark. The HTRF signal is read using an Envision plate reader.

TYK2 = target: T2, TYK2 (Homo sapiens, UniProt P29597); test: JAK kinase assay (HTRF, phosphorylation of synthetic peptide), TYK2; details: catalytic domain, ATP at Km (13 μM); read-out: TYK2 kinase inhibitory activity (EC50)
T2 construct: JAK1 (aa 850-1154) and TYK2 (aa 871-1187) are expressed with an N-terminally fused GST-tag; GST (N); purchased Carna Biosciences, Inc; host or cells: baculovirus expression system
T2 sequence (P29597 871-1187): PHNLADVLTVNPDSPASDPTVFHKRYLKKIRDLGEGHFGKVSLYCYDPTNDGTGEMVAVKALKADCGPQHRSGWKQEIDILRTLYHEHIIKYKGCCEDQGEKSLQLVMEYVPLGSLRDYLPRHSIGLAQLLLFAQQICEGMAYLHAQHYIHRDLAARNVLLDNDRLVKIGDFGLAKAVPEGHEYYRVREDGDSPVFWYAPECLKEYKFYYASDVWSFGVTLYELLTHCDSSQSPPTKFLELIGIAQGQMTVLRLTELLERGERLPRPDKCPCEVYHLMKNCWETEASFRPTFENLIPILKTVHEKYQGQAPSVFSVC
Method: as §1, §2

JAK1 = target: T3, JAK1 (Homo sapiens, UniProt P23458); test: JAK kinase assay (HTRF, phosphorylation of synthetic peptide), JAK1; details: catalytic domain, ATP at Km (7 μM); read-out: JAK1 kinase inhibitory activity (EC50)
T3 construct: JAK1 (aa 850-1154) and TYK2 (aa 871-1187) are expressed with an N-terminally fused GST-tag; GST (N); purchased Carna Biosciences, Inc; host or cells: baculovirus expression system
Method: as §1, §2

JAK2 = target: T4, JAK2 (Homo sapiens, UniProt O60674); test: JAK kinase assay (HTRF, phosphorylation of synthetic peptide), JAK2; details: catalytic domain, ATP at Km (4 μM); read-out: JAK2 kinase inhibitory activity (EC50)
T4 construct: All four purified enzymes contain only the catalytic domain; His (N); purchased Carna Biosciences, Inc; host or cells: baculovirus expression system
Method: as §1, §2

T4 sequence (O60674 849-1124 limits assumed): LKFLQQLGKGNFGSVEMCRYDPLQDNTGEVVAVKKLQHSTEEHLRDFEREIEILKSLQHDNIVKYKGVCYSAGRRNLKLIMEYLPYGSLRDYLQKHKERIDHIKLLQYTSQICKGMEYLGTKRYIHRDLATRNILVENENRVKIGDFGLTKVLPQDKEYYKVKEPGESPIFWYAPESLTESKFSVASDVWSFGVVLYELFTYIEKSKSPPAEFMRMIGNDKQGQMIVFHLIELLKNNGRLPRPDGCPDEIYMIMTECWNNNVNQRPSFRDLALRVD
T3 sequence (P23458 850-1154): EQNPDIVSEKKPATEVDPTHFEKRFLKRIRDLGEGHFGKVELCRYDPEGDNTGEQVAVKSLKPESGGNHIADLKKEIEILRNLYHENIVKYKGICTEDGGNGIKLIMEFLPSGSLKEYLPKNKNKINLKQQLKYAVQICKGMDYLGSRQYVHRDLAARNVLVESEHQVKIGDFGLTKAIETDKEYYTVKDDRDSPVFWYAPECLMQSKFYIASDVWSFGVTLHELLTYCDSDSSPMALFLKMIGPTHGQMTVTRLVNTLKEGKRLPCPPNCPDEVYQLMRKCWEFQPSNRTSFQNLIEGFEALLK
T1 sequence (P52333 822-1111 limits assumed): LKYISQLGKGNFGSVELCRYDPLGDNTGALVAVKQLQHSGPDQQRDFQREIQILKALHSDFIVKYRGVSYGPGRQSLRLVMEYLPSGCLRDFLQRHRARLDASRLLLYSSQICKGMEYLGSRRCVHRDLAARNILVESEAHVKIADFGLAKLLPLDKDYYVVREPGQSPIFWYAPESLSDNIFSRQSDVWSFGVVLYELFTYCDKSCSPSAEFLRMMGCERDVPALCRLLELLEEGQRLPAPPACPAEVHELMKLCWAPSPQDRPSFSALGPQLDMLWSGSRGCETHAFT

Row | EC50 (JAK3) [nM] | EC50 (TYK2) [nM] | EC50 (JAK1) [nM] | EC50 (JAK2) [nM] | Structure (SMILES)
1 | < 100 | 100 to 500 | < 100 | < 100 | CN(C[C@@H]1CCCN1C(=O)CCO)S(=O)(=O)N1CCN(c2ncnc3[nH]ccc23)CC12CC2 [Example 193, N-[[(2S)-1-(3-hydroxypropanoyl)pyrrolidin-2-yl]methyl]-N-methyl-5-(7H-pyrrolo[2,3-d]pyrimidin-4-yl)-5,8-diazaspiro[2.5]octane-8-sulfonamide]
2 | 100 to 500 | > 500 | < 100 | < 100 | CCCC(C)NS(=O)(=O)N1CCN(c2ncnc3[nH]ccc23)CC12CC2 (stereo not shown) [Example 143, N-(1-methylbutyl)-5-(7H-pyrrolo[2,3-d]pyrimidin-4-yl)-5,8-diazaspiro[2.5]octane-8-sulfonamide]
3 | < 100 | < 100 | < 100 | < 100 | N#CCN(C1COC1)S(=O)(=O)N1CCN(c2ncnc3[nH]ccc23)CC12CC2 [Example 113, N-(cyanomethyl)-N-(oxetan-3-yl)-5-(7H-pyrrolo[2,3-d]pyrimidin-4-yl)-5,8-diazaspiro[2.5]octane-8-sulfonamide]
4 | < 100 | < 100 | < 100 | < 100 | N#CCN(CC1CCS(=O)(=O)C1)S(=O)(=O)N1CCN(c2ncnc3[nH]ccc23)CC12CC2 (stereo not shown) [Example 166, N-(cyanomethyl)-N-[(1,1-dioxothiolan-3-yl)methyl]-5-(7H-pyrrolo[2,3-d]pyrimidin-4-yl)-5,8-diazaspiro[2.5]octane-8-sulfonamide]
5 | 100 to 500 | > 500 | < 100 | < 100 | CN(CCCc1cccc(C#N)c1)S(=O)(=O)N1CCN(c2ncnc3[nH]ccc23)CC12CC2 [Example 30, 7-(7H-Pyrrolo[2,3-d]pyrimidin-4-yl)-4,7-diaza-spiro[2.5]octane-4-sulfonic acid [3-(3-cyano-phenyl)-propyl]-methyl-amide]
6 | 100 to 500 | > 500 | < 100 | < 100 | CN(CCCc1ccccc1)S(=O)(=O)N1CCN(c2ncnc3[nH]ccc23)CC12CC2 [Example 10, 7-(7H-Pyrrolo[2,3-d]pyrimidin-4-yl)-4,7-diaza-spiro[2.5]octane-4-sulfonic acid methyl-(3-phenyl-propyl)-amide]
7 | 100 to 500 | > 500 | < 100 | < 100 | CN(CC1CCNCC1)S(=O)(=O)N1CCN(c2ncnc3[nH]ccc23)CC12CC2 [Int 26]
8 | < 100 | > 500 | < 100 | < 100 | CCN(CC1CCC(F)(F)CC1)S(=O)(=O)N1CCN(c2ncnc3[nH]ccc23)CC12CC2 [Example 149, N-[(4,4-difluorocyclohexyl)methyl]-N-ethyl-5-(7H-pyrrolo[2,3-d]pyrimidin-4-yl)-5,8-diazaspiro[2.5]octane-8-sulfonamide]
9 | 100 to 500 | 100 to 500 | < 100 | < 100 | CN(C(=O)CC(F)(F)F)S(=O)(=O)N1CCN(c2ncnc3[nH]ccc23)CC12CC2 [Example 129, 3,3,3-trifluoro-N-methyl-N-[[5-(7H-pyrrolo[2,3-d]pyrimidin-4-yl)-5,8-diazaspiro[2.5]octan-8-yl]sulfonyl]propanamide]
10 | < 100 | > 500 | < 100 | < 100 | N#CCCCN(CCCc1ccccc1)S(=O)(=O)N1CCN(c2ncnc3[nH]ccc23)CC12CC2 [Example 57, 7-(7H-Pyrrolo[2,3-d]pyrimidin-4-yl)-4,7-diaza-spiro[2.5]octane-4-sulfonic acid (3-cyano-propyl)-(3-phenyl-propyl)-amide]
11 | > 500 | > 500 | > 500 | > 500 | O=S(=O)(N(CCc1ccccc1)CC1CCCCC1)N1CCN(c2ncnc3[nH]ccc23)CC12CC2 [Example 8, 7-(7H-Pyrrolo[2,3-d]pyrimidin-4-yl)-4,7-diaza-spiro[2.5]octane-4-sulfonic acid cyclohexylmethyl-phenethyl-amide]
12 | 100 to 500 | < 100 | < 100 | < 100 | CN(C(=O)CCC(F)(F)F)S(=O)(=O)N1CCN(c2ncnc3[nH]ccc23)CC12CC2 [Example 131, 4,4,4-trifluoro-N-methyl-N-[[5-(7H-pyrrolo[2,3-d]pyrimidin-4-yl)-5,8-diazaspiro[2.5]octan-8-yl]sulfonyl]butanamide]
13 | < 100 | > 500 | < 100 | < 100 | N#CCCNS(=O)(=O)N1CCN(c2ncnc3[nH]ccc23)CC12CC2 [Int 40]
14 | 100 to 500 | 100 to 500 | < 100 | < 100 | CN(Cc1ccccn1)S(=O)(=O)N1CCN(c2ncnc3[nH]ccc23)CC12CC2 [Example 28, 7-(7H-Pyrrolo[2,3-d]pyrimidin-4-yl)-4,7-diaza-spiro[2.5]octane-4-sulfonic acid methyl-pyridin-2-ylmethyl-amide]
15 | < 100 | > 500 | < 100 | < 100 | O=S1(=O)CCC(CNS(=O)(=O)N2CCN(c3ncnc4[nH]ccc34)CC23CC3)CC1 [Int 38]
16 | < 100 | 100 to 500 | < 100 | < 100 | CN(CC1CCCS(=O)(=O)C1)S(=O)(=O)N1CCN(c2ncnc3[nH]ccc23)CC12CC2 (stereo not shown) [Example 76, N-[(1,1-dioxothian-3-yl)methyl]-N-methyl-5-(7H-pyrrolo[2,3-d]pyrimidin-4-yl)-5,8-diazaspiro[2.5]octane-8-sulfonamide]
17 | > 500 | > 500 | < 100 | 100 to 500 | CN(C(=O)CCC1CCCC1)S(=O)(=O)N1CCN(c2ncnc3[nH]ccc23)CC12CC2 [Example 134, 3-cyclopentyl-N-methyl-N-[[5-(7H-pyrrolo[2,3-d]pyrimidin-4-yl)-5,8-diazaspiro[2.5]octan-8-yl]sulfonyl]propanamide]
18 | 100 to 500 | > 500 | < 100 | < 100 | CN(CC1CCCN(C(=O)CCC#N)C1)S(=O)(=O)N1CCN(c2ncnc3[nH]ccc23)CC12CC2 (stereo not shown) [Example 153, N-[[1-(3-cyanopropanoyl)-3-piperidyl]methyl]-N-methyl-5-(7H-pyrrolo[2,3-d]pyrimidin-4-yl)-5,8-diazaspiro[2.5]octane-8-sulfonamide]
19 | > 500 | > 500 | 100 to 500 | < 100 | CN(C)CCCN(C1CCC1)S(=O)(=O)N1CCN(c2ncnc3[nH]ccc23)CC12CC2 [Example 105, N-cyclobutyl-N-[3-(dimethylamino)propyl]-5-(7H-pyrrolo[2,3-d]pyrimidin-4-yl)-5,8-diazaspiro[2.5]octane-8-sulfonamide]
20 | 100 to 500 | > 500 | < 100 | < 100 | CC#CCN(CCc1ccccc1)S(=O)(=O)N1CCN(c2ncnc3[nH]ccc23)CC12CC2 [Example 23, 7-(7H-Pyrrolo[2,3-d]pyrimidin-4-yl)-4,7-diaza-spiro[2.5]octane-4-sulfonic acid but-2-ynyl-phenethyl-amide]
21 | < 100 | < 100 | < 100 | < 100 | CN(CC1CC(F)(F)CN1)S(=O)(=O)N1CCN(c2ncnc3[nH]ccc23)CC12CC2 (stereo not shown) [Int 28]
22 | < 100 | > 500 | < 100 | < 100 | CC(C)(C)OC(=O)NS(=O)(=O)N1CCN(c2ncnc3[nH]ccc23)CC12CC2 [Int 53]
